Type in all cases: in vivo
For one series, the system named is Xanthium orientalis. As to the kind of experiment: Field trial with soybeans, herbicidal action. The conditions noted are these: 5-leaf stage, scoring 28 days after application. The method, then: (§1) Transgenic soybean plants with a resistance to one or more herbicides (A) together with typical weed plants were grown in the open on 2×5 m plots under natural field conditions; alternatively, weed infestation occurred naturally when the soybean plants were grown.
(§2) 2, 4, 6 and 8 weeks after the application, the herbicidal activity of the active substances or active substance mixtures was scored visually with reference to the treated plots in comparison to untreated control plots. The damage to, and the development of, all aerial parts of the plants was recorded. Scoring was done on the basis of a percentage sale (100% action all plants destroyed; 50% action=50% of the plants and green parts of the plants destroyed; 0% action=no recognizable effect=like control plot. The mean of the score values of in each case 4 plots was calculated.

The subject of a further series is Pharbitis purpureum. The series is described as follows: Field trial with soybeans, herbicidal action. As to conditions: 3-leaf stage, scoring 42 days after application. On the procedure:
as §1, §2

For series [1], the system named is Soja LL (glufosinate-tolerant soybean culture). The series is described as follows: Field trial with soybeans, tolerance by crop plants. The method, then: as §1, §2
Another series relates to Portulaca oleracea. The series is described as follows: Field trial with soybeans, herbicidal action. The conditions noted are these: 8–10 leaf stage, scoring 32 days after application. The method, then:
as §1
(§3) […] The damage to, and the development of, all aerial parts of the plants was recorded. Scoring was done on the basis of a percentage sale (100% action all plants destroyed; 50% action=50% of the plants and green parts of the plants destroyed; 0% action=no recognizable effect=like control plot. The mean of the score values of in each case 4 plots was calculated.

The next series deals with Sorghum sudaneus. As to the kind of experiment: Field trial with soybeans, herbicidal action. The conditions noted are these: 4-leaf stage, scoring 28 days after application. The method, then: as §1, §2
A further series deals with Eleusine indica. As to the kind of experiment: Field trial with soybeans, herbicidal action. As to conditions: 3-leaf stage, scoring 42 days after application. On the procedure: as §1, §2
In the next series the test system is Digitalis abscendens. As to the kind of experiment: Field trial with soybeans, herbicidal action. The conditions noted are these: application middle-end of stocking, scoring 3 weeks after application. The method, then:
as §1, §3

For the next series, the system named is Sida rombifolia. As to the kind of experiment: Field trial with soybeans, herbicidal action. The conditions noted are these: 4-leaf stage, scoring 43 days after application.
A further series concerns Abutilon theophrasti. The series is described as follows: Field trial with soybeans, herbicidal action. As to conditions: 4-leaf stage, scoring 42 days after application. The method, then: as §1, §2
For the next series, the system named is Equisetum arvense. As to the kind of experiment: Field trial with soybeans, herbicidal action. The conditions noted are these: 4–6 leaf stage, scoring 3 weeks after application. On the procedure:
as §1, §3

Where [2] appears, read: Table 8, 50 g of a.s./ha, 4-leaf stage, scoring 43 days after application.

Where a name gives a salt, the structure may show the parent alone.

Consider `CCCN(CCC)c1c([N+](=O)[O-])cc(C(F)(F)F)cc1[N+](=O)[O-]` [(B1.1), trifluralin], for which the “Herbicidal action (%) against Xanthium orientalis” value in the series with Xanthium orientalis (960 g of a.s./ha) amounted to 0%.

Consider `COCc1cnc(C2=NC(C)(C(C)C)C(=O)N2)c(C(=O)O)c1` (centres unmarked) [(A3.5), imazamox], for which, in the series with Pharbitis purpureum (30 g of a.s./ha), the “Herbicidal action (%) against Pharbitis purpureum” value is reported as 40%. For the same compound, in [1] (Table 7, 30 g of a.s./ha, 3-leaf stage, scoring 42 days after application), the “Herbicidal action (%) against Soja LL” value came to 0%.

For the compound `CCc1cccc(C)c1N(C(=O)CCl)C(C)COC` (centres unmarked) [(B1.5), metolachlor], the “Herbicidal action (%) against Portulaca oleracea” value in the series with Portulaca oleracea (2240 g of a.s./ha) is 30%. For the same compound, in series [1] (Table 5, 2240 g of a.s./ha, 8–10 leaf stage, scoring 32 days after application), the “Herbicidal action (%) against Soja LL” value stood at 0%.

On to `COC(=O)c1sccc1S(=O)(=O)NC(=O)Nc1nc(C)nc(OC)n1` [(B2.3), thifensulfuron-methyl], for which, in the series with Portulaca oleracea (5 g of a.s./ha), the “Herbicidal action (%) against Portulaca oleracea” value was determined as 45%. In the series with Sorghum sudaneus (15 g of a.s./ha), the “Herbicidal action (%) against Sorghum sudaneus” value worked out at 13%. Further, the “Herbicidal action (%) against Soja LL” value in series [1] (in vivo) came to 3%.

As for `COc1cc(Cl)nc(NC(=O)NS(=O)(=O)c2ccccc2C(=O)O)n1` [(B2.11), chlorimuron], the “Herbicidal action (%) against Eleusine indica” value with Eleusine indica (12.5 g of a.s./ha) is reported as 5%. For the same compound, in series [1] (Table 6, 12.5 g of a.s./ha, 3-leaf stage, scoring 42 days after application), the “Herbicidal action (%) against Soja LL” value stood at 0%.

As to `C#CCN1C(=O)COc2cc(F)c(N3C(=O)C4=C(CCCC4)C3=O)cc21` [(B1.15), flumioxazin], the “Herbicidal action (%) against Portulaca oleracea” value in the series on Portulaca oleracea (100 g of a.s./ha) worked out at 65%. Moreover, the “Herbicidal action (%) against Pharbitis purpureum” value with Pharbitis purpureum (12.5 g of a.s./ha) was determined as 30%. Moreover, the “Herbicidal action (%) against Soja LL” value in series [1] (Table 5, 100 g of a.s./ha, 8–10 leaf stage, scoring 32 days after application) is 0%; in series [1] (Table 7, 12.5 g of a.s./ha, 3-leaf stage, scoring 42 days after application), 0%.

For `CCc1cccc(CC)c1N(COC)C(=O)CCl` [(B1.8), alachlor], the “Herbicidal action (%) against Digitalis abscendens” value in the series with Digitalis abscendens (2580 g of a.s./ha) came to 48%.

With `CC(C)N1C(=O)c2ccccc2NS1(=O)=O` [(B2.2), bentazone], the “Herbicidal action (%) against Pharbitis purpureum” value with Pharbitis purpureum (480 g of a.s./ha) came to 35%. For the same compound, the “Herbicidal action (%) against Soja LL” value in [1] (Table 7, 480 g of a.s./ha, 3-leaf stage, scoring 42 days after application) worked out at 0%.

On to `CCCCCOC(=O)COc1cc(N2C(=O)C3=C(CCCC3)C2=O)c(F)cc1Cl` [(B2.7), flumiclorac-pentyl], for which the “Herbicidal action (%) against Soja LL” value in [1] (setting [2]) came to 0%. In addition, in the series with Sida rombifolia (50 g of a.s./ha), the “Herbicidal action (%) against Sida rombifolia” value is 40%.

As to `O=C(O)c1cc(Oc2ccc(C(F)(F)F)cc2Cl)ccc1[N+](=O)[O-]` [(B2.8), acifluorfen], in the series with Sorghum sudaneus (360 g of a.s./ha), the “Herbicidal action (%) against Sorghum sudaneus” value was 15%.

In the case of `CCc1cnc(C2=NC(C)(C(C)C)C(=O)N2)c(C(=O)O)c1` (centres unmarked) [(A3.2), imazethapyr], the “Herbicidal action (%) against Eleusine indica” value in the series on Eleusine indica (50 g of a.s./ha) is listed as 27%. Further, in [1] (in vivo), the “Herbicidal action (%) against Soja LL” value worked out at 0%.

`CCOC(=O)[C@@H](C)Oc1ccc(Oc2nc3ccc(Cl)cc3o2)cc1` [(B4.2), fenoxaprop-P-ethyl]: the figures for the “Herbicidal action (%) against Eleusine indica” value with Eleusine indica (25 g of a.s./ha) and in the series on Eleusine indica (50 g of a.s./ha) were 30% and 70%, respectively. The “Herbicidal action (%) against Soja LL” value is given as 0% in series [1] (Table 6, 25 g of a.s./ha, 3-leaf stage, scoring 42 days after application) and 0% in series [1] (Table 6, 50 g of a.s./ha, 3-leaf stage, scoring 42 days after application).

As to `Cc1ccn2nc(S(=O)(=O)Nc3c(F)cccc3F)nc2n1` [(B1.6), flumetsulam], the “Herbicidal action (%) against Abutilon theophrasti” value in the series with Abutilon theophrasti (35 g of a.s./ha) is 52%.

For `CCOc1nc(F)cc2nc(S(=O)(=O)Nc3c(Cl)cccc3C(=O)OC)nn12` [(B2.12), cloransulam-methyl], the “Herbicidal action (%) against Portulaca oleracea” value with Portulaca oleracea (18 g of a.s./ha) worked out at 73%. Moreover, in the series with Pharbitis purpureum (40 g of a.s./ha), the “Herbicidal action (%) against Pharbitis purpureum” value was 45%. In addition, the “Herbicidal action (%) against Soja LL” value came to 2% in series [1] (Table 5, 18 g of a.s./ha, 8–10 leaf stage, scoring 32 days after application) and 0% in [1] (Table 7, 40 g of a.s./ha, 3-leaf stage, scoring 42 days after application).

Regarding `CON(C)C(=O)Nc1ccc(Cl)c(Cl)c1` [(B1.9), linuron], the “Herbicidal action (%) against Sorghum sudaneus” value in the series on Sorghum sudaneus (750 g of a.s./ha) turned out to be 15%.

Consider `Cc1cc(C)nc(NC(=O)NS(=O)(=O)c2ccccc2C(=O)OC2COC2)n1` [(B2.15), oxasulfuron], for which, in [1] (setting [2]), the “Herbicidal action (%) against Soja LL” value is reported as 0%. Moreover, the “Herbicidal action (%) against Sida rombifolia” value in the series on Sida rombifolia (50 g of a.s./ha) is on record as 60%.

For `COCC(C)N(C(=O)CCl)c1c(C)csc1C` (centres unmarked) [(B1.7), dimethenamid], the “Herbicidal action (%) against Abutilon theophrasti” value in the series on Abutilon theophrasti (1500 g of a.s./ha) worked out at 30%.

`CCOC(=O)C(C)OC(=O)c1cc(Oc2ccc(C(F)(F)F)cc2Cl)ccc1[N+](=O)[O-]` (centres unmarked) [(B2.5), lactofen]: the “Herbicidal action (%) against Equisetum arvense” value in the series on Equisetum arvense (150 g of a.s./ha) and in the series with Equisetum arvense (300 g of a.s./ha) was 0% throughout. Further, in the series with Abutilon theophrasti (2240 g of a.s./ha), the “Herbicidal action (%) against Abutilon theophrasti” value is 20%.

Take `CP(=O)(O)CCC(N)C(=O)O` (centres unmarked) [(A1.2), glufosinate-monoammonium salt]: the “Herbicidal action (%) against Digitalis abscendens” value with Digitalis abscendens (1200 g of a.s./ha) was determined as 36%. Besides, in the series with Equisetum arvense (400 g of a.s./ha), the “Herbicidal action (%) against Equisetum arvense” value turned out to be 70%. Besides, the “Herbicidal action (%) against Portulaca oleracea” value is 20% in the series on Portulaca oleracea (250 g of a.s./ha) and 65% with Portulaca oleracea (500 g of a.s./ha). Moreover, the “Herbicidal action (%) against Abutilon theophrasti” value in the series on Abutilon theophrasti (330 g of a.s./ha) is listed as 45%; in the series with Abutilon theophrasti (500 g of a.s./ha) it was 95%. In addition, the “Herbicidal action (%) against Eleusine indica” value in the series with Eleusine indica (200 g of a.s./ha) is 40%; in the series with Eleusine indica (500 g of a.s./ha), 80%. For the same compound, the “Herbicidal action (%) against Pharbitis purpureum” value in the series on Pharbitis purpureum (200 g of a.s./ha) was found to be 35%; with Pharbitis purpureum (400 g of a.s./ha) it was 72%. In addition, the “Herbicidal action (%) against Sorghum sudaneus” value was determined as 15% in the series with Sorghum sudaneus (300 g of a.s./ha) and 65% in the series with Sorghum sudaneus (500 g of a.s./ha). The “Herbicidal action (%) against Xanthium orientalis” value amounted to 96% in the series on Xanthium orientalis (300 g of a.s./ha) and 98% in the series on Xanthium orientalis (500 g of a.s./ha). In addition, the “Herbicidal action (%) against Soja LL” value in series [1] (Table 5, 250 g of a.s./ha, 8–10 leaf stage, scoring 32 days after application) is on record as 0%; in series [1] (Table 5, 500 g of a.s./ha, 8–10 leaf stage, scoring 32 days after application), 0%; in series [1] (Table 6, 200 g of a.s./ha, 3-leaf stage, scoring 42 days after application) it was 0%; in series [1] (Table 6, 500 g of a.s./ha, 3-leaf stage, scoring 42 days after application) it was 0%; in [1] (Table 7, 200 g of a.s./ha, 3-leaf stage, scoring 42 days after application), 0%; in [1] (Table 7, 400 g of a.s./ha, 3-leaf stage, scoring 42 days after application) it was 0%. Also, the “Herbicidal action (%) against Soja LL” value turned out to be 0% in series [1] (Table 8, 150 g of a.s./ha, 4-leaf stage, scoring 43 days after application) and 0% in series [1] (Table 8, 300 g of a.s./ha, 4-leaf stage, scoring 43 days after application). The “Herbicidal action (%) against Sida rombifolia” value was 25% in the series with Sida rombifolia (150 g of a.s./ha) and 65% in the series on Sida rombifolia (300 g of a.s./ha).
